Experimental data from paper PMC8699473, “An Easily Expandable Multi-Drug LC-MS Assay for the Simultaneous Quantification of 57 Oral Antitumor Drugs in Human Plasma” (Cancers, 2021).
Where “and” joins values, the source holds several entries; their conditions need not be identical. Equal entries are not always repeated.

Tests used:
[1] = Freeze-thaw stability in spiked pooled human plasma; type: physicochemical
[2] = Autosampler stability of ready for injection samples; type: physicochemical, human
[3] = Plasma concentrations in patients on oral antitumor therapy (LC-MS); type: in vivo, human; details: for Measured plasma concentration: 24 h, ±4 h of trough level: no
Text: The liquid chromatography-mass spectrometer system consisted of a Thermo Scientific Dionex UltiMate^TM 3000 with an integrated and temperature controlled autosampler (Thermo Fisher Scientific, Dreieich, Germany). An Acquity UPLC® BEH C18 column (2.1 × 100 mm, 1.7 µm; Waters, Milford, CT, USA) equipped with an Acquity UPLC® BEH C18 VanGuard^TM Pre-Column (2.1 × 5 mm, 1.7 µm; Waters, Milford, CT, USA) was used for chromatographic separation. The Q-Exactive^TM Focus mass spectrometer (MS) was hyphenated with a heated electrospray ionization (HESI) source (both from Thermo Fisher Scientific, Dreieich, Germany).
Chromatographic separation was achieved using a gradient elution with water containing 0.5% (v/v) FA (eluent A) and MeOH with 0.1% (v/v) FA (eluent B). The injection volume was 5 µL. The gradient program is shown in Supplement Table S2. The flow rate was 0.5 mL/min with a total run time of 15 min. The column heater was maintained at 50 °C and the autosampler temperature was 4 °C.
The following MS and HESI settings were maintained for all analyses: Sheath gas, auxiliary gas, and sweep gas flow rates were set to 60, 20, and 0, respectively. The spray voltage was 4000 V. Both capillary and auxiliary gas heater temperatures were set to 400 °C. High-purity nitrogen gas was used for the HESI source gases and for the bath gas of the C-trap. […] The HESI source was configured in positive mode for ionization.
The stock solutions were stored in glass vials at −80 °C. Aliquots of all stock solutions were combined in ACN (volumes of individual stock solution solvents are negligible) to obtain a standard solution of all analytes with an individual concentration of 200% of the respective trough level (cmin). Eight individual working standards were prepared by stepwise dilution of this standard solution with concentrations from 10 to 200% cmin (shown in Supplement Table S3). Furthermore, the four individual IS stock solutions were combined and diluted to 50 ng/mL with ACN. Calibration and validation standards were prepared by spiking 50 µL pooled human plasma with 10 µL of the respective working solution. Next, 250 µL IS solution (50 ng/mL in ACN) were added and vortexed vigorously. […] Then, 100 µL supernatant were transferred to 300 µL HPLC insert glass vials and diluted with 100 µL eluent (90% A/10% B). For blank samples, 50 µL pooled human plasma were combined with 10 µL ACN (instead of working solution) and prepared as described above. The calibration and validation standards were freshly prepared before every run. Patient plasma samples were prepared as calibration and validation standards (no additional processing step necessary), except for adding 10 µL ACN instead of 10 µL working standard. Before sample preparation, the frozen plasma samples were thawed in absence of light at 4 °C.
Blood samples were collected over the entire dosing interval from patients treated with an oral anticancer drug as listed in Supplement Table S4. […] A maximum of two samples at two different time points throughout the entire dosing interval were collected per patient. Treatment duration before collection was at least five half-lives (depending on the specific oral anticancer drug). The samples were collected in K3-EDTA tubes.
A total of 71 blood samples from 39 patients treated with 14 different oral anticancer drugs were collected (see Supplement Table S4 for details). All patients were recruited from independent outpatient clinics associated with the Comprehensive Cancer Center of the University Hospital Erlangen (CCC Erlangen-EMN). Of 71 blood samples, 41 were taken ±4 h of trough level (cmin).

[4] = Reference trough level (cmin) at steady state; type: in vivo, human; details: minimum steady-state plasma concentration, calculated based on cmax; ref supplement [7], [2,5,24], [51]
[5] = Long-term stability in spiked pooled human plasma
[6] = Short-term stability in spiked pooled human plasma (bench-top, 4 °C, 56 °C)
[7] = patient plasma, all samples, r.c. = respective cmin

With `C=CC(=O)N1CCC[C@@H](n2nc(-c3ccc(Oc4ccccc4)cc3)c3c(N)ncnc32)C1` [Ibrutinib] the “Freeze-Thaw Accuracy [%]” value ([1]; validation standard 2xLLOV) was 100.8%, the “Freeze-Thaw Accuracy [%]” value ([1]; validation standard LLOV) was 100.2% and the “Freeze-Thaw Accuracy [%]” value ([1]; validation standard MOV) was 93.3%. For the same molecule, the “Freeze-Thaw Accuracy [%]” value ([1]; validation standard ULOV) was 95.6%, the “Autosampler (24h, 4°C) Accuracy [%]” value ([2]; validation standard 2xLLOV) was 101.4% and the “Autosampler (72h, 4°C) Accuracy [%]” value ([2]; validation standard 2xLLOV) was 100.0%. For the same molecule, the “Autosampler (24h, 4°C) Accuracy [%]” value ([2]; validation standard LLOV) was 97.6%, the “Autosampler (72h, 4°C) Accuracy [%]” value ([2]; validation standard LLOV) was 95.8% and the “Autosampler (24h, 4°C) Accuracy [%]” value ([2]; validation standard MOV) was 103.0%. For the same molecule, the “Autosampler (72h, 4°C) Accuracy [%]” value ([2]; validation standard MOV) was 103.7%, the “Autosampler (24h, 4°C) Accuracy [%]” value ([2]; validation standard ULOV) was 100.0% and the “Autosampler (72h, 4°C) Accuracy [%]” value ([2]; validation standard ULOV) was 102.6%. For the same molecule, the “Measured plasma concentration” value ([3]; 420 mg/day) was 3.2 ng/mL and 4.2 ng/mL, the “Measured plasma concentration” value ([3]; 560 mg/day) was 115.2 ng/mL and 139.5 ng/mL and the “Interpatient Coefficient of Variation [%]” value ([3]; patient plasma concentrations) was 110.0%. The “Median Concentration of All Samples [% of r.c.]” value [3, 7] was 110.1 % of r.c, the “Min–Max Concentration [% of r.c.]” value [3, 7] was 4.8–211.4 % of r.c and the “cmin” value [4] was 66 ng/mL.

For `O=c1[nH]c(=O)n([C@H]2C[C@H](O)[C@@H](CO)O2)cc1C(F)(F)F` [Trifluridine], the “Long-term stability, 1 month, -20°C Accuracy [%]” value ([5]; validation standard 2xLLOV) was 112.0%, the “Long-term stability, 1 month, -80°C Accuracy [%]” value ([5]; validation standard 2xLLOV) was 105.0% and the “Long-term stability, 2 month, -20°C Accuracy [%]” value ([5]; validation standard 2xLLOV) was 107.3%. For the same molecule, the “Long-term stability, 2 month, -80°C Accuracy [%]” value ([5]; validation standard 2xLLOV) was 104.3%, the “Long-term stability, 3 month, -20°C Accuracy [%]” value ([5]; validation standard 2xLLOV) was 103.6% and the “Long-term stability, 3 month, -80°C Accuracy [%]” value ([5]; validation standard 2xLLOV) was 99.5%. The “Long-term stability, 6 weeks, 4°C, without daylight Accuracy [%]” value ([5]; validation standard 2xLLOV) was 68.8%, the “Long-term stability, 1 month, -20°C Accuracy [%]” value ([5]; validation standard LLOV) was 97.0% and the “Long-term stability, 1 month, -80°C Accuracy [%]” value ([5]; validation standard LLOV) was 95.2%. The “Long-term stability, 2 month, -20°C Accuracy [%]” value ([5]; validation standard LLOV) was 79.5%, the “Long-term stability, 2 month, -80°C Accuracy [%]” value ([5]; validation standard LLOV) was 70.3% and the “Long-term stability, 3 month, -20°C Accuracy [%]” value ([5]; validation standard LLOV) was 89.9%. For the same molecule, the “Long-term stability, 3 month, -80°C Accuracy [%]” value ([5]; validation standard LLOV) was 85.8%, the “Long-term stability, 6 weeks, 4°C, without daylight Accuracy [%]” value ([5]; validation standard LLOV) was 49.1% and the “Long-term stability, 1 month, -20°C Accuracy [%]” value ([5]; validation standard MOV) was 99.4%. The “Long-term stability, 1 month, -80°C Accuracy [%]” value ([5]; validation standard MOV) was 94.6%, the “Long-term stability, 2 month, -20°C Accuracy [%]” value ([5]; validation standard MOV) was 109.3% and the “Long-term stability, 2 month, -80°C Accuracy [%]” value ([5]; validation standard MOV) was 104.7%. The “Long-term stability, 3 month, -20°C Accuracy [%]” value ([5]; validation standard MOV) was 92.2%, the “Long-term stability, 3 month, -80°C Accuracy [%]” value ([5]; validation standard MOV) was 90.8% and the “Long-term stability, 6 weeks, 4°C, without daylight Accuracy [%]” value ([5]; validation standard MOV) was 59.0%. The “Long-term stability, 1 month, -20°C Accuracy [%]” value ([5]; validation standard ULOV) was 93.7%, the “Long-term stability, 1 month, -80°C Accuracy [%]” value ([5]; validation standard ULOV) was 88.8% and the “Long-term stability, 2 month, -20°C Accuracy [%]” value ([5]; validation standard ULOV) was 98.4%. The “Long-term stability, 2 month, -80°C Accuracy [%]” value ([5]; validation standard ULOV) was 95.5%, the “Long-term stability, 3 month, -20°C Accuracy [%]” value ([5]; validation standard ULOV) was 82.1% and the “Long-term stability, 3 month, -80°C Accuracy [%]” value ([5]; validation standard ULOV) was 79.9%. For the same molecule, the “Long-term stability, 6 weeks, 4°C, without daylight Accuracy [%]” value ([5]; validation standard ULOV) was 27.1%, the “Freeze-Thaw Accuracy [%]” value ([1]; validation standard 2xLLOV) was 101.6% and the “Freeze-Thaw Accuracy [%]” value ([1]; validation standard LLOV) was 80.9%. For the same molecule, the “Freeze-Thaw Accuracy [%]” value ([1]; validation standard MOV) was 94.4%, the “Freeze-Thaw Accuracy [%]” value ([1]; validation standard ULOV) was 91.6% and the “Autosampler (24h, 4°C) Accuracy [%]” value ([2]; validation standard 2xLLOV) was 117.8%. The “Autosampler (72h, 4°C) Accuracy [%]” value ([2]; validation standard 2xLLOV) was 107.4%, the “Autosampler (24h, 4°C) Accuracy [%]” value ([2]; validation standard LLOV) was 97.0% and the “Autosampler (72h, 4°C) Accuracy [%]” value ([2]; validation standard LLOV) was 86.9%. The “Autosampler (24h, 4°C) Accuracy [%]” value ([2]; validation standard MOV) was 113.1%, the “Autosampler (72h, 4°C) Accuracy [%]” value ([2]; validation standard MOV) was 102.7% and the “Autosampler (24h, 4°C) Accuracy [%]” value ([2]; validation standard ULOV) was 104.4%. For the same molecule, the “Autosampler (72h, 4°C) Accuracy [%]” value ([2]; validation standard ULOV) was 98.4%, the “Short-time stability (1h, 56°C) Accuracy [%]” value ([6]; validation standard 2xLLOV) was -6.6% and the “Short-time stability (24h, 4°C, without daylight) Accuracy [%]” value ([6]; validation standard 2xLLOV) was 103.5%. For the same molecule, the “Short-time stability (24h, RT, with daylight) Accuracy [%]” value ([6]; validation standard 2xLLOV) was 72.7%, the “Short-time stability (24h, RT, without daylight) Accuracy [%]” value ([6]; validation standard 2xLLOV) was 76.2% and the “Short-time stability (1h, 56°C) Accuracy [%]” value ([6]; validation standard LLOV) was -89.2%. For the same molecule, the “Short-time stability (24h, 4°C, without daylight) Accuracy [%]” value ([6]; validation standard LLOV) was 83.6%, the “Short-time stability (24h, RT, with daylight) Accuracy [%]” value ([6]; validation standard LLOV) was 45.6% and the “Short-time stability (24h, RT, without daylight) Accuracy [%]” value ([6]; validation standard LLOV) was 36.1%. The “Short-time stability (1h, 56°C) Accuracy [%]” value ([6]; validation standard MOV) was 28.1%, the “Short-time stability (24h, 4°C, without daylight) Accuracy [%]” value ([6]; validation standard MOV) was 96.3% and the “Short-time stability (24h, RT, with daylight) Accuracy [%]” value ([6]; validation standard MOV) was 78.0%. The “Short-time stability (24h, RT, without daylight) Accuracy [%]” value ([6]; validation standard MOV) was 75.3%, the “Short-time stability (1h, 56°C) Accuracy [%]” value ([6]; validation standard ULOV) was 23.2% and the “Short-time stability (24h, 4°C, without daylight) Accuracy [%]” value ([6]; validation standard ULOV) was 85.5%. For the same molecule, the “Short-time stability (24h, RT, with daylight) Accuracy [%]” value ([6]; validation standard ULOV) was 66.9%, the “Short-time stability (24h, RT, without daylight) Accuracy [%]” value ([6]; validation standard ULOV) was 67.3% and the “cmin” value [4] was 1135 ng/mL.
